Assay results published in a compilation of properties of binary mixtures (doi:10.1016/j.jct.2013.10.027).

Assay: xn = mol fraction of the nth substance listed
Settings: 101 kPa

CCCC[n+]1ccn(C)c1.O=S(=O)([N-]S(=O)(=O)C(F)(F)F)C(F)(F)F + OCC(F)(F)F
x2 = 0
Settings | viscosity [mPa·s]
278.15 K | 143
288.15 K | 82.4
293.15 K | 64.6
298.15 K | 51.6
303.15 K | 41.9
308.15 K | 34.6
313.15 K | 28.9
318.15 K | 24.4
323.15 K | 20.9
328.15 K | 18
333.15 K | 15.7

OCC(F)(F)F + CCCC[n+]1ccn(C)c1.O=S(=O)([N-]S(=O)(=O)C(F)(F)F)C(F)(F)F
viscosity [mPa·s]
Settings | x1 = 0.0877 | x1 = 0.2626 | x1 = 0.4753 | x1 = 0.6153 | x1 = 0.7568 | x1 = 0.8748 | x1 = 1
278.15 K | 111.4 | – | – | – | – | 5.37 | 3.28
283.15 K | 84.8 | 51.2 | 24.63 | 14.14 | 7.74 | 4.62 | 2.81
288.15 K | 66 | 40.93 | 20.36 | 11.94 | 6.67 | 4.02 | 2.42
293.15 K | 52.3 | 33.18 | 17.03 | – | 5.8 | 3.53 | 2.11
298.15 K | 42.28 | – | 14.48 | 8.81 | – | 3.12 | 1.84
303.15 K | 34.67 | 22.96 | 12.43 | 7.68 | 4.45 | 2.78 | 1.62
308.15 K | 28.83 | 19.43 | 10.77 | 6.75 | 3.94 | 2.49 | 1.43
313.15 K | 24.27 | 16.63 | – | 5.99 | 3.53 | 2.25 | 1.27
318.15 K | 20.67 | 14.38 | – | 5.35 | 3.18 | 2.04 | 1.13
323.15 K | 17.78 | 12.54 | 7.38 | 4.81 | 2.88 | 1.85 | –
328.15 K | 15.43 | 11.03 | 6.6 | 4.34 | 2.62 | 1.69 | 0.925
333.15 K | 13.51 | – | 5.94 | 3.95 | 2.4 | 1.54 | 0.824
